Data as given in PMC7217877, “N-AS-triggered SPMs are direct regulators of microglia in a model of Alzheimer’s disease” (Nature Communications, 2020).
“And” between values parts separate entries of the source, which are not always exact repeats. Equal values may be shown once.

Columns and labels:
neuron = test: SphK activity in primary cells; type: cell-based, C57BL/6 mice; conditions: Ab 10mM, replicates
Description: We confirmed S1P formation through SphK1 enzymatic activity measurements as previously described[11] using a UPLC (Ultra performance liquid chromatography) system (Waters). […] After pre-incubation, 1 mM ATP (Amresco, 0220) was added the mixture, and it was incubated at 37 °C for 1 h. The […] reactions were stopped by adding 53 μl of ethanol, and centrifuged at 15,493×g for 5 min. Thirty microliter of the supernatant was then transferred to a sampling glass vial and 5 μl was applied onto a UPLC system for analysis. S1P formation was followed as phosphorylation of (7-nitro-2-1,3-benzoxadiazol-4-yl)-d-erythro (NBD)-sphingosine (Avanti Polar Lipids) to NBD-S1P. Quantification was achieved by comparison with NBD-S1P (Avanti Polar Lipids) standards.
To confirm the generation and roles of N-AS in neurons, cells from E18 C57BL/6 mice were prepared as previously described. Cortices were dissected and then dissociated followed by incubation in papain (Worthington) at 37 °C for 15 min. […] The human microglia treated with Aβ 1–42 and/or zileuton was incubated with N-AS (2.5 μM, 2 h, Sigma-Aldrich, 01912), and were analyzed for the generation and roles of N-AS.

APP/PS1 mice = test: flow cytometry of brain immune cells (Fig 5c-g); type: in vivo, mouse; conditions: APP/PS1 + N-AS, individual values
Description: Transgenic mouse lines over-expressing the hAPP695swe (APP) and presenilin-1M146V (PS1) mutations were originated from GlaxoSmithKline (Harlow, UK)[32] and maintained as described previously. We purchased 5×FAD mice from Jackson Labs (Stock number. 34840-JAX). Because APP/PS1 and 5xFAD mice show sex differences in disease progression, we used only male mice. To examine possible therapeutic effect of N-AS and aspirin in APP/PS1 mice, the N-AS (30 mg kg^−1, Sigma-Aldrich, 01912) was injected daily s.c. for 8 weeks to 7-months-old APP/PS1 mice until the age of 9 months, and aspirin (2 mg kg^−1, Sigma-Aldrich, A5376)[33] was administrated orally to 7-months-old APP/PS1 mice for 8 weeks. Also, to confirm possible therapeutic efficacy of N-AS in 5×FAD, the N-AS (30 mg kg^−1, Sigma-Aldrich, 01912) was injected daily s.c. for 4 weeks to 3-months-old 5×FAD mice until the age of 4 months. Block randomization method was used to allocate the animals to experimental groups. To eliminate the bias, we were blinded in experimental progress such as data collection and data analysis. Mice were housed at temperature of 22 °C and a 12 h day/12 h night cycle with free access to tap water and food pellets. All protocols were approved by the Kyungpook National University Institutional Animal Care and Use Committee.
Brain microglia polarity and immune cells in brain and blood were analyzed by flow cytometry. Cells from WT, APP/PS1, and APP/PS1 treated with N-AS mice brain were prepared as previously described with minor modifications. Brains of WT, APP/PS1, and APP/PS1 treated with N-AS mice were dissected and immediately transferred in ice-cold HBSS (Gibco). After gentle mincing, the brain was digested in a HBSS solution containing collagenase P (0.2 mg ml^−1, Roche), dispase II (0.8 mg ml^−1, Roche), DNase I (0.01 mg ml^−1, Roche), and collagenase A (0.3 mg ml^−1, Roche) at 37 °C for 1 h under gentle rocking. Digestion was stopped by adding FBS (Gibco) on ice. The supernatants were centrifuged at 250×g for 10 min at 4 °C. The pellet was resuspended in 25% BSA (Gibco)/PBS (Gibco) for myelin removal. Following a centrifugation step at 3000×g for 30 min at 4 °C, the myelin containing supernatant was discarded. The cell pellets were then resuspended in 1 ml of HBSS and filtered through a 40 μm mesh, followed by a washing step in HBSS. The cell pellets were resuspended in 1 ml of red blood cell lysis buffer (BD Biosciences) and incubated at RT for 10 min for lysis of erythrocytes. Subsequently, 2 ml of MACs buffer (Miltenyl Biotec, 130-091-222) was added and centrifuged at 250×g for 10 min at 4 °C. Cells from WT, APP/PS1, and APP/PS1 treated with N-AS mice blood were prepared as previously described with minor modifications. Blood was collected in sodium-heparin tube (BD, 367871) by cardiac puncture. Red blood cells were lysed once at 4 °C for 10 min in 0.15 M NH4Cl ([…] Technologies), washed once with PBS (Gibco), and counted using cell counter (Logos biosystems). […]

Ab: Aβ 1–42 (Invitrogen, 03112) used to induce an AD environment in cells
SphK activity (Fig 3d) (neuron): 1.391 and 1.001 and 1.873 and 1.345 and 1.437 and 1.609

CCCCCCCCCCCCC/C=C/[C@@H](O)[C@H](CO)NC(C)=O [N-AS, N-((2S,3R,E)-1,3-Dihydroxyoctadec-4-en-2-yl)acetamide]
calculated percentage of B220+ B cell (APP/PS1 mice): 2.8 and 2.66 and 2.73 and 2.695 | calculated percentage of CD4+ T cell (APP/PS1 mice): 2.24 and 2.43 and 2.335 and 2.3825 | calculated percentage of CD45+CD11b+Ly6ChiLy6G- monocyte (APP/PS1 mice): 0.84 and 1.06 and 0.92 and 0.95 and 0.99 and 0.935 | calculated percentage of CD45hi CD11b+ Gr-1- F4/80+ CD206+ (anti-inflammatory macrophage) (APP/PS1 mice): 0.4 and 0.45 and 0.37 and 0.39 and 0.41 and 0.38 | calculated percentage of CD45hi CD11b+ Gr-1- F4/80+ MHCIIhi (pro-inflammatory macrophage) (APP/PS1 mice): 0.46 and 0.45 and 0.59 and 0.4 and 0.52 and 0.495 | calculated percentage of cd45+cd11b+gr1+ neutrophil (APP/PS1 mice): 0.452 and 0.46 and 0.34 and 0.504 and 0.4 and 0.422 | calculated percentage of cd45+ly6g+gr1+ neutrophil (APP/PS1 mice): 0.99 and 1.19 and 0.83 and 0.97 and 1.01 and 0.9
